Results from patent publication US12421278B2, “Immunomodulators” (Bristol-Myers Squibb Company, priority 2020, dated 2025).
Starred links: 1 amine or outer side, 2 acyl side, 3 side chain; linkers in the order of their positions; H or OH if unused. Positions of bridges follow the written chain, without caps; N, C: chain ends. Non-standard residues stand in square brackets, D forms with d. Residues, ends and D or L forms follow the SMILES beside them. Trp(1-CH2CO2Me) = COC(=O)Cn1cc(C[C@H](N)C(=O)O)c2ccccc21; Trp(1-CH2COOH) = N[C@@H](Cc1cn(CC(=O)O)c2ccccc12)C(=O)O; X4 = O=C(O)c1cc(NC(=S)[*:1])cc(NC(=S)[*:2])c1; X2 = O=C([C@H](CCNCC=[*:3])N[*:1])[*:2]; X1 = O=C([C@H](CNCC=[*:3])N[*:1])[*:2]; X3 = O=C(NCCCCCCNC(=O)[*:2])[*:1]; Hyp = O=C(O)[C@@H]1C[C@@H](O)CN1; Oxalyl = O=C(C(=O)[*:2])[*:1]; NMeNle = CCCC[C@H](NC)C(=O)O; NEtAla = CCN[C@@H](C)C(=O)O; NMeA = CN[C@@H](C)C(=O)O; Dab = NCC[C@H](N)C(=O)O; Dap = NC[C@H](N)C(=O)O

Molecular target: T1, PD-1/PD-L1 (Homo sapiens, UniProt Q9NZQ7)
T1 construct: TVMV protease site (C); made in house; host or cells: HEK293T cells
T1 sequence (Q9NZQ7 18-239): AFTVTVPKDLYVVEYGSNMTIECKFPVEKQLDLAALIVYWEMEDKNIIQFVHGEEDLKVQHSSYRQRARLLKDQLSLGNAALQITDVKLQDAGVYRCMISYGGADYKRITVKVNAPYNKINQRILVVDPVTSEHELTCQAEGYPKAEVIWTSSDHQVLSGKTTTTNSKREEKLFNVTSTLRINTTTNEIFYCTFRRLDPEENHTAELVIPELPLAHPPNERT
Assay: PD-1/PD-L1 Homogenous Time-Resolved Fluorescence (HTRF) binding assay
Settings: PD-L1-His 10 nM final, PD-1-Ig 20 nM final
From the text: The ability of the compounds of formula (I) to bind to PD-L1 was investigated using a PD-1/PD-L1 Homogenous Time-Resolved Fluorescence (HTRF) binding assay.
Homogenous Time-Resolved Fluorescence (HTRF) Binding Assay
The interaction of PD-1 and PD-L1 can be assessed using soluble, purified preparations of the extracellular domains of the two proteins. The PD-1 and PD-L1 protein extracellular domains were expressed as fusion proteins with detection tags, for PD-1, the tag was the Fc portion of Immunoglobulin (PD-1-Ig) and for PD-L1 it was the 6 histidine motif (PD-L1-His). All binding studies were performed in an HTRF assay buffer consisting of dPBS supplemented with 0.1% […] bovine serum albumin and 0.05% (v/v) Tween-20. For the h/PD-L1-His binding assay, inhibitors were pre-incubated with PD-L1-His (10 nM final) for 15 m in 4 μl of assay buffer, followed by addition of PD-1-Ig (20 nM final) in 1 μl of assay buffer and further incubation for 15 m. HTRF detection was achieved using europium crypate-labeled anti-Ig (1 nM final) and allophycocyanin (APC) labeled anti-His (20 nM final). Antibodies were diluted in HTRF detection buffer and 5 μl was dispensed on top of the binding reaction. The reaction mixture was allowed to equilibrate for 30 minutes and the resulting signal (665 nm/620 nm ratio) was obtained using an EnVision fluorometer. Additional binding assays were established between the human proteins PD-1-Ig/PD-L2-His (20 & 5 nM, respectively) and CD80-His/PD-L1-Ig (100 & 10 nM, respectively).
Recombinant Proteins: Human PD-1 (25-167) with a C-terminal human Fc domain of immunoglobulin G (Ig) epitope tag [hPD-1 (25-167)-3S-IG] and human PD-L1 (18-239) with a C-terminal His epitope tag [hPD-L1(18-239)-TVMV-His] were expressed in HEK293T cells and purified sequentially by ProteinA affinity chromatography and size exclusion chromatography. Human PD-L2-His and CD80-His was obtained through commercial sources.
Table 1 lists the IC50 values for representative examples of this disclosure measured in the PD-1/PD-L1 Homogenous Time-Resolved Fluorescence (HTRF) binding assay.

| IC50 [nM] | Structure (SMILES) |
| --- | --- |
| 8.3 | CCCC[C@H]1C(=O)N(C)[C@@H](CCCC)C(=O)N[C@@H](CC(C)C)C(=O)N[C@H](C(=O)NCC(N)=O)CSCC(=O)N[C@@H](Cc2ccc(O)cc2)C(=O)N(C)[C@@H](C)C(=O)N[C@@H](CC(N)=O)C(=O)N(CC)[C@@H](C)C(=O)N[C@H]2CNC/C=C\CNCC[C@H](NC(=O)[C@H](Cc3c[nH]c4ccccc34)NC(=O)[C@@H]3C[C@@H](O)CN3C(=O)[C@H](CC(C)C)NC2=O)C(=O)N[C@@H](Cc2cn(CC(=O)O)c3ccccc23)C(=O)N1C [Example 1005] ({CH2CO}-Y[NMeA]N[NEtAla][X1]L[Hyp]W[X2][Trp(1-CH2COOH)][NMeNle][NMeNle]LCG-NH2; staple (Z) 5-9; thioether N-14) |
| 78 | CCCC[C@H]1C(=O)N(C)[C@@H](CCCC)C(=O)N[C@@H](CC(C)C)C(=O)N[C@H](C(=O)NCC(N)=O)CSCC(=O)N[C@@H](Cc2ccc(O)cc2)C(=O)N(C)[C@@H](C)C(=O)N[C@@H](CC(N)=O)C(=O)N2CCC[C@H]2C(=O)N[C@H]2CNC(=S)Nc3cc(cc(C(=O)O)c3)NC(=S)NCC[C@H](NC(=O)[C@H](Cc3c[nH]c4ccccc34)NC(=O)[C@@H]3C[C@@H](O)CN3C(=O)[C@H](CC(C)C)NC2=O)C(=O)N[C@@H](Cc2cn(CC(=O)O)c3ccccc23)C(=O)N1C [Example 1007] ({CH2CO}-Y[NMeA]NP[Dap]L[Hyp]W[Dab][Trp(1-CH2COOH)][NMeNle][NMeNle]LCG-NH2; linker 5-9 via X4; thioether N-14) |

Second part, the molecule before the results:

| Structure (SMILES) | IC50 [nM] |
| --- | --- |
| CCCC[C@H]1C(=O)N(C)[C@@H](CCCC)C(=O)N[C@@H](CC(C)C)C(=O)N[C@H](C(=O)NCC(N)=O)CSCC(=O)N[C@@H](Cc2ccc(O)cc2)C(=O)N(C)[C@@H](C)C(=O)N[C@@H](CC(N)=O)C(=O)N2CCC[C@H]2C(=O)N[C@H]2CNC(=O)NCCCCCCNC(=O)NCC[C@H](NC(=O)[C@H](Cc3c[nH]c4ccccc34)NC(=O)[C@@H]3C[C@@H](O)CN3C(=O)[C@H](CC(C)C)NC2=O)C(=O)N[C@@H](Cc2cn(CC(=O)O)c3ccccc23)C(=O)N1C [Example 1001] ({CH2CO}-Y[NMeA]NP[Dap]L[Hyp]W[Dab][Trp(1-CH2COOH)][NMeNle][NMeNle]LCG-NH2; linker 5-9 via X3; thioether N-14) | 4 |
| CCCC[C@H]1C(=O)N(C)[C@@H](CCCC)C(=O)N[C@@H](CC(C)C)C(=O)N[C@H](C(=O)NCC(N)=O)CSCC(=O)N[C@@H](Cc2ccc(O)cc2)C(=O)N(C)[C@H]2CN3CC[C@H](NC(=O)[C@H](Cc4c[nH]c5ccccc45)NC(=O)[C@@H]4C[C@@H](O)CN4C(=O)[C@H](CC(C)C)NC(=O)[C@H](CNc4c3c(=O)c4=O)NC(=O)[C@@H]3CCCN3C(=O)[C@H](CC(N)=O)NC2=O)C(=O)N[C@@H](Cc2cn(CC(=O)O)c3ccccc23)C(=O)N1C [Example 1002] | 210 |
| CCCC[C@H]1C(=O)N(C)[C@@H](CCCC)C(=O)N[C@@H](CC(C)C)C(=O)N[C@H](C(=O)NCC(N)=O)CSCC(=O)N[C@@H](Cc2ccc(O)cc2)C(=O)N(C)[C@@H](C)C(=O)N[C@@H](CC(N)=O)C(=O)N2CCC[C@H]2C(=O)N[C@H]2CNC(=O)C(=O)NCC[C@H](NC(=O)[C@H](Cc3c[nH]c4ccccc34)NC(=O)[C@@H]3C[C@@H](O)CN3C(=O)[C@H](CC(C)C)NC2=O)C(=O)N[C@@H](Cc2cn(CC(=O)OC)c3ccccc23)C(=O)N1C [Example 1003] ({CH2CO}-Y[NMeA]NP[Dap]L[Hyp]W[Dab][Trp(1-CH2CO2Me)][NMeNle][NMeNle]LCG-NH2; linker 5-9 via Oxalyl; thioether N-14) | 120 |
| CCCC[C@H]1C(=O)N(C)[C@@H](CCCC)C(=O)N[C@@H](CC(C)C)C(=O)N[C@H](C(=O)NCC(N)=O)CSCC(=O)N[C@@H](Cc2ccc(O)cc2)C(=O)N(C)[C@@H](C)C(=O)N[C@@H](CC(N)=O)C(=O)N2CCC[C@H]2C(=O)N[C@H]2CNCC(O)COCC(O)CNCC[C@H](NC(=O)[C@H](Cc3c[nH]c4ccccc34)NC(=O)[C@@H]3C[C@@H](O)CN3C(=O)[C@H](CC(C)C)NC2=O)C(=O)N[C@@H](Cc2cn(CC(=O)O)c3ccccc23)C(=O)N1C (stereo partly drawn) [Example 1004] | 11 |
